The text below walks through data of patent US9873702B2, “Heterocyclic compounds as biogenic amine transport modulators” (Southern Research Institute, priority 2014, dated 2018).

Experiment [1] deals with T1, DAT (Rattus norvegicus, UniProt P23977).
T1 construct: from tissue; host or cells: rat caudate membranes
Description: Dopamine transporter binding, inhibition of [^3H]WIN35428 binding in rat caudate membranes. Here is the method:
The ability of test drugs to inhibit [^3H]WIN35428 binding to DAT in rat caudate membranes was assessed as follows. For each experiment, caudates from four rat brains were suspended in 15 mL ice cold assay buffer (50 mM sodium phosphate pH 7.4) and homogenized using a polytron (setting 6, 20 sec). The homogenate was centrifuged at 30,000×g for 10 minutes at 4° C. The pellet was resuspended with vigorous vortexing in 15 mL fresh ice cold assay buffer, and the centrifugation was repeated. The pellet was resuspended in 15 mL fresh ice cold assay buffer with vigorous vortexing followed by six strokes with a glass-on-glass hand-held homogenizer and was diluted to a final volume of 235 mL in ice cold assay buffer. [^3H]WIN35428 was diluted to 10 nM in assay buffer that contained 25 μg/mL chymostatin, 25 μg/mL leupeptin, 0.1 mM EDTA, and 0.1 mM EGTA. Each assay tube contained 0.75 mL membrane preparation, 0.15 mL test drug diluted in assay buffer containing 1 mg/mL bovine serum albumin, and 0.1 mL [^3H]WIN35428 preparation (final concentration of 1 nM). Assays were initiated by the addition of membranes and were terminated after 2 hours at 25° C. by rapid vacuum filtration. Retained tritium was measured as described. The data from three experiments were pooled and fit to a dose-response curve equation (using Kaleidagraph), to yield an Emax and EC50 value.

The target of experiment [2] is T2, dopamine transporter (DAT) (Rattus norvegicus, UniProt P23977). As to the kind of experiment: Dopamine transporter-mediated [^3H]MPP^+ release, shift of D-amphetamine-induced release, rat caudate synaptosomes. Format: biochemical. Also on record: Freshly removed caudate was homogenized in 10% ice-cold sucrose; from tissue; host or cells: rat caudate synaptosomes. The settings on record: for Apparent Kc: [3H]MPP+ release, Apparent Kc = [Blocker]/((EC50-2/EC50-1) − 1), negative when shifted EC50 is less than control; for Kb: apparent Ke from shift of D-amphetamine-induced [^3H]MPP^+ release, compound at the concentration of column 1, read-out: Ke App.
T2 sequence (P23977 whole entry): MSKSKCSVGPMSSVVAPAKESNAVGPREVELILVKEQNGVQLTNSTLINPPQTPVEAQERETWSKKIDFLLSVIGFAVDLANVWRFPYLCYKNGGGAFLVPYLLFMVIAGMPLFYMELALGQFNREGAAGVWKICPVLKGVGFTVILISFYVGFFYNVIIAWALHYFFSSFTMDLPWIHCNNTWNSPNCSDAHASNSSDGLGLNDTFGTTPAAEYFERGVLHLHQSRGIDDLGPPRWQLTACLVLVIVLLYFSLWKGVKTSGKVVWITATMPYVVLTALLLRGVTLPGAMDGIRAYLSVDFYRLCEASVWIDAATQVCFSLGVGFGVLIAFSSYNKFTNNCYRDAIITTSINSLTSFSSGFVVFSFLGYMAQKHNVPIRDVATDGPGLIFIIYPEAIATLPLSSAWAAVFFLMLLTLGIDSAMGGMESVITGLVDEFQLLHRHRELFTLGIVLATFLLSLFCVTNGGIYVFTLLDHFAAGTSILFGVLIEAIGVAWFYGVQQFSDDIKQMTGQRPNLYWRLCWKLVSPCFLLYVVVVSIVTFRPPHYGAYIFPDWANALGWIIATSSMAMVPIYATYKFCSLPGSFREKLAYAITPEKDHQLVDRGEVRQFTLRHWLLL

Experiment [3] concerns the target T3, serotonin transporter (SERT) (Rattus norvegicus, UniProt P31652).
T3 construct: Freshly removed whole brain minus cerebellum and caudate was homogenized; from tissue; host or cells: rat whole brain minus cerebellum and caudate, synaptosomes
Description: Serotonin reuptake ([^3H]serotonin uptake) inhibition in rat brain synaptosomes. It is filed as biochemical.

For experiment [4], the target named is T2, dopamine transporter (DAT). Description: Dopamine reuptake ([^3H]dopamine uptake) inhibition in rat brain synaptosomes.
Experiment [5] deals with norepinephrine transporter (NET) (Rattus norvegicus, UniProt Q9WTR4). As to the kind of experiment: Norepinephrine reuptake ([^3H]norepinephrine uptake) inhibition in rat brain synaptosomes. To be noted: for NE Uptake Emax (% I ± SD): maximal inhibition from dose-response fit.
Setting [6] is: 2 h, read-out: DAT Binding εmax.
[7] abbreviates: mean ± S.D., n = 3, read-out: SERT Uptake IC50.
Where [8] appears, read: DAT Uptake IC50, [3H]DA uptake inhibition, mean ± S.D., n = 3.
The mark [9] stands for this setting: IC50 for DAT Uptake Inhibition, rounded value as listed in Table 10.
[10] abbreviates: read-out: Emax for DAT Uptake Inhibition.
Where [11] appears, read: read-out: NET Uptake IC50, mean ± S.D., n = 3.
Setting [12] is: mean ± S.D., n = 3, read-out: SERT Uptake Emax.
Where [13] appears, read: rat brain synaptosomes, 10 nM [^3H]norepinephrine.
[14] abbreviates: read-out: NE Uptake EC50 (nM ± SD), rat brain synaptosomes, 10 nM [^3H]norepinephrine, 10 min, 37° C.
[15] abbreviates: Emax of D-amphetamine for [^3H]MPP^+ release in presence of 150 nM test compound.

As a reminder, the EC50 is the concentration needed to bring the measured effect to its halfway point.

Where two headings read alike, the source gives them in different places.

T3 sequence (P31652 whole entry): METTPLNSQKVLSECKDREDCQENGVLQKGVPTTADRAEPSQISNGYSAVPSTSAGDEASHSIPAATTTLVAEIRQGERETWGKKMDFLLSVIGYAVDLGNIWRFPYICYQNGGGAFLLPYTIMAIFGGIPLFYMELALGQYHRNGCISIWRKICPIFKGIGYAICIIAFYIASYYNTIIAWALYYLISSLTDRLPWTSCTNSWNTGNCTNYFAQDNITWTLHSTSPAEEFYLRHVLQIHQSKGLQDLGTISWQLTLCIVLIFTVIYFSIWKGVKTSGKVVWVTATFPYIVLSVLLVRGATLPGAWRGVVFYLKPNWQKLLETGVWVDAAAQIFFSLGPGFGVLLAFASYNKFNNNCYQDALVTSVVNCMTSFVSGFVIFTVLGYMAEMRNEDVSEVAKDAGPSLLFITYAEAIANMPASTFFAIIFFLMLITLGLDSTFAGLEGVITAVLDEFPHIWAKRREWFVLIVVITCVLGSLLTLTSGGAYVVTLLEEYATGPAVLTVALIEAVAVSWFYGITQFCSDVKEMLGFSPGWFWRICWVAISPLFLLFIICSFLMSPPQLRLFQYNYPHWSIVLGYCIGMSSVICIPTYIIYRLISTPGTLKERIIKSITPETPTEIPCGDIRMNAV
T1 sequence (P23977 whole entry): as the sequence (P23977 whole entry) above

As for `CS(=O)(=O)Nc1ccc(-c2nc(NCC(c3ccccc3)c3ccccc3)c3ccccc3n2)cc1` [SRI-29577], the Emax in experiment [1] (setting [6]) came out at 65 ± 6%; in experiment [4] (setting [10]), 70%. Further, the “Apparent Kc” value in experiment [2] was -553 nM. Moreover, the IC50 in experiment [3] (setting [7]) was 20 ± 5 nM; in experiment [4] (setting [8]), 4.4 ± 0.8 nM; in experiment [4] (setting [9]), 4 nM; in experiment [5] (setting [11]) it was 90 ± 15 nM. Also, the “NET Uptake Emax” value in experiment [5] (mean ± S.D., n = 3) was 71 ± 2%.

As to `Cc1cc2nccn2cc1-c1nc(NCC(c2ccccc2)c2ccc[nH]2)c2ccccc2n1` (stereo not shown) [compound 140, 2-(7-Methylimidazo[1,2-A]Pyridin-6-yl)-N-(2-Phenyl-2-(1H-Pyrrol-2-yl)Ethyl)Quinazolin-4-Amine], the Emax amounted to 91 ± 7% in experiment [1] (setting [6]), 54 ± 2% in experiment [3] (setting [12]), 69 ± 1% in experiment [4] (read-out: DAT Uptake Emax) and 69% in experiment [4] (setting [10]). The “D-Amphetamine Emax (% ± SD)” value in experiment [2] (Emax of D-amphetamine for [^3H]MPP^+ release in presence of 25 nM test compound) was determined as 105 ± 3%. For the same molecule, in experiment [2], the “Apparent Kc” value worked out at 55 nM. Besides, the IC50 in experiment [3] (setting [7]) worked out at 3.1 ± 0.7 nM; in experiment [4] (setting [8]) it was 1.2 ± 0.1 nM; in experiment [4] (setting [9]), 1 nM; in experiment [5] (setting [14]), 11 ± 4 nM; in experiment [5] (setting [11]), 11 ± 4 nM. Further, the “NET Uptake Emax” value in experiment [5] (mean ± S.D., n = 3) was found to be 70 ± 4%. In addition, in experiment [5] (setting [13]), the “NE Uptake Emax (% I ± SD)” value stood at 70 ± 4 % I.

As to `c1ccc(C(CNc2nc(-c3cnc4nccn4c3)nc3ccccc23)C2CCCCC2)cc1` (stereo not shown) [compound 102, N-(2-Cyclohexyl-2-Phenylethyl)-2-(Imidazo[1,2-A]Pyrimidin-6-yl)Quinazolin-4-Amine], the Emax in experiment [1] (setting [6]) worked out at 43 ± 4%; in experiment [3] (setting [12]), 54 ± 1%; in experiment [4] (read-out: DAT Uptake Emax), 70 ± 1%; in experiment [4] (setting [10]), 70%. Further, the “D-Amphetamine Emax (% ± SD)” value in experiment [2] (setting [15]) came to 104 ± 4%. In addition, the “Apparent Kc” value in experiment [2] was determined as 1600 nM. Further, the Kb in experiment [2] stood at 1600 nM. For the same molecule, the IC50 amounted to 23 ± 3 nM in experiment [3] (setting [7]); 6 ± 0.7 nM in experiment [4] (setting [8]); 6 nM in experiment [4] (setting [9]); 95 ± 12 nM in experiment [5] (setting [14]); 95 ± 12 nM in experiment [5] (setting [11]). The “NET Uptake Emax” value in experiment [5] (mean ± S.D., n = 3) was 70 ± 2%. The “NE Uptake Emax (% I ± SD)” value in experiment [5] (setting [13]) turned out to be 70 ± 2 % I.

`c1ccc(C(CNc2nc(-c3cnc4nccn4c3)nc3ccccc23)c2ccccc2)cc1` [compound 89, N-(2,2-Diphenylethyl)-2-(Imidazo[1,2-A]Pyrimidin-6-yl)Quinazolin-4-Amine]: the Emax is 18 ± 4% in experiment [1] (setting [6]), 51 ± 1% in experiment [3] (setting [12]), 68 ± 1% in experiment [4] (read-out: DAT Uptake Emax) and 68% in experiment [4] (setting [10]). In experiment [2] (Emax of D-amphetamine for [^3H]MPP^+ release in presence of 50 nM test compound), the “D-Amphetamine Emax (% ± SD)” value was 102 ± 2%. In addition, in experiment [2], the “Apparent Kc” value was -1070 nM. The IC50 in experiment [3] (setting [7]) was determined as 4.7 ± 0.6 nM; in experiment [4] (setting [8]), 2.1 ± 0.3 nM; in experiment [4] (setting [9]), 2 nM; in experiment [5] (setting [14]), 63 ± 9 nM; in experiment [5] (setting [11]), 63 ± 9 nM. Besides, the “NET Uptake Emax” value in experiment [5] (mean ± S.D., n = 3) amounted to 69 ± 2%. Also, the “NE Uptake Emax (% I ± SD)” value in experiment [5] (setting [13]) is 69 ± 2 % I.

Consider `Cc1cc2nccn2cc1-c1nc(NCC(c2ccccc2)c2ccccc2)c2ccccc2n1` [compound 118, N-(2,2-Diphenylethyl)-2-(7-Methylimidazo[1,2-A]Pyridin-6-yl)Quinazolin-4-Amine], for which the Emax came to 79 ± 3% in experiment [1] (setting [6]), 58 ± 3% in experiment [3] (setting [12]), 63 ± 2% in experiment [4] (read-out: DAT Uptake Emax) and 63% in experiment [4] (setting [10]). Besides, the “D-Amphetamine Emax (% ± SD)” value in experiment [2] (Emax of D-amphetamine for [^3H]MPP^+ release in presence of 12.5 nM test compound) is listed as 104 ± 3%. In experiment [2], the “Apparent Kc” value was 267 nM. Moreover, in experiment [2], the Kb was 267 nM. Further, the IC50 in experiment [3] (setting [7]) came to 3.2 ± 0.9 nM; in experiment [4] (setting [8]) it was 0.5 ± 0.1 nM; in experiment [4] (setting [9]), 0.5 nM; in experiment [5] (setting [14]), 21 ± 7 nM; in experiment [5] (setting [11]) it was 21 ± 7 nM. In addition, in experiment [5] (mean ± S.D., n = 3), the “NET Uptake Emax” value is given as 67 ± 3%. Moreover, the “NE Uptake Emax (% I ± SD)” value in experiment [5] (setting [13]) is reported as 67 ± 3 % I.

`c1ccc(C(CNc2nc(-c3cnc4nccn4c3)nc3ccccc23)c2ccncc2)cc1` (stereo not shown) [compound 110, 2-(Imidazo[1,2-A]Pyrimidin-6-yl)-N-(2-Phenyl-2-(Pyridin-4-yl)Ethyl)Quinazolin-4-Amine]: the Emax worked out at 25 ± 2% in experiment [1] (setting [6]), 51 ± 2% in experiment [3] (setting [12]), 64 ± 1% in experiment [4] (read-out: DAT Uptake Emax) and 64% in experiment [4] (setting [10]). Moreover, the “D-Amphetamine Emax (% ± SD)” value in experiment [2] (setting [15]) is 104 ± 5%. Further, in experiment [2], the “Apparent Kc” value is on record as 1200 nM. In experiment [2], the Kb is 1200 nM. The IC50 in experiment [3] (setting [7]) is 11 ± 3 nM; in experiment [4] (setting [8]), 5.6 ± 0.8 nM; in experiment [4] (setting [9]), 6 nM; in experiment [5] (setting [14]) it was 60 ± 10 nM; in experiment [5] (setting [11]) it was 60 ± 10 nM. For the same molecule, in experiment [5] (mean ± S.D., n = 3), the “NET Uptake Emax” value was 69 ± 2%. The “NE Uptake Emax (% I ± SD)” value in experiment [5] (setting [13]) is 69 ± 2 % I.

Regarding `CN(C)c1ccc(-c2nc(NCC(c3ccccc3)c3ccccc3)c3ccccc3n2)cc1` [SRI-29786], the Emax in experiment [1] (setting [6]) amounted to 100 ± 3%; in experiment [4] (setting [10]), 70%. The “Apparent Kc” value in experiment [2] came to 1940 nM. The IC50 came to 49 ± 27 nM in experiment [3] (setting [7]), 7.1 ± 2.2 nM in experiment [4] (setting [8]), 7 nM in experiment [4] (setting [9]) and 143 ± 61 nM in experiment [5] (setting [11]). Further, the “NET Uptake Emax” value in experiment [5] (mean ± S.D., n = 3) amounted to 68 ± 7%.

Turning to `CN(C)c1ncc(-c2nc(NC(c3ccccc3)c3ccccc3)c3ccccc3n2)cn1` [compound 12, N-Benzhydryl-2-(2-(dimethylamino)pyrimidin-5-yl)quinazolin-4-amine], in experiment [1] (read-out: WIN Binding EC50 (μM ± SD)), the EC50 was 1.8 ± 0.4 µM. Also, the Emax in experiment [1] (read-out: WIN Binding Emax (% I ± SD)) was found to be 71 ± 4%; in experiment [3] (rat brain synaptosomes, 5 nM [^3H]serotonin, maximal inhibition from dose-response fit, read-out: 5HT Uptake Emax (% I ± SD)), 48 ± 3%; in experiment [4] (read-out: DA Uptake Emax (% I ± SD)) it was 66 ± 4%. The “D-Amphetamine Emax (% ± SD)” value in experiment [2] (Emax of D-amphetamine for [^3H]MPP^+ release in presence of 5000 nM test compound) stood at 98 ± 1%. The Kb in experiment [2] came to 7050 nM. In addition, the IC50 in experiment [3] (rat brain synaptosomes, 5 nM [^3H]serotonin, 30 min, 25° C., read-out: 5HT Uptake EC50 (nM ± SD)) stood at 699 ± 164 nM; in experiment [4] (DA Uptake EC50 (nM ± SD), rat caudate synaptosomes, 5 nM [^3H]dopamine, 15 min, 25° C., three experiments pooled), 174 ± 58 nM; in experiment [5] (setting [14]), 1740 ± 1150 nM. In experiment [5] (setting [13]), the “NE Uptake Emax (% I ± SD)” value was 64 ± 10 % I.
